Active and inactive are the calls of the source. The calls are words filed in the database; no cut-off is given here.
How the values were obtained:
HL-60 [1] = experiment: Induction of apoptosis in human HL60 cells after 24 to 48 hrs by acridine orange and ethidium bromide staining based fluorescence microscopy; assay type: functional, cell-based; conditions: hl-60
[2] = Growth inhibition of human HL60 cells after 48 hrs by MTT assay; assay type: functional, cell-based, HL-60; conditions: Homo sapiens, HL-60, 48 h; read-out: IC50
K562 = experiment: Growth inhibition of human K562 cells after 48 hrs by MTT assay; assay type: functional, cell-based; conditions: Homo sapiens, K562, 48 h; read-out: IC50
HuT78 = experiment: Growth inhibition of human HUT78 cells after 48 hrs by MTT assay; assay type: functional, cell-based; conditions: Homo sapiens, HuT78, 48 h; read-out: IC50
HT-29 = experiment: Growth inhibition of human HT-29 cells after 48 hrs by MTT assay; assay type: functional, cell-based; conditions: Homo sapiens, HT-29, 48 h; read-out: IC50
MCF7 = experiment: Growth inhibition of human MCF7 cells after 48 hrs by MTT assay; assay type: functional, cell-based; conditions: Homo sapiens, MCF7, 48 h; read-out: IC50
HeLa = experiment: Growth inhibition of human HeLa cells after 48 hrs by MTT assay; assay type: functional, cell-based; conditions: Homo sapiens, HeLa, 48 h; read-out: IC50
[3] = Growth inhibition of human Caco2 cells after 48 hrs by MTT assay; assay type: functional, cell-based, Caco-2; conditions: Homo sapiens, Caco-2, 48 h; read-out: IC50
HL-60 [4] = experiment: Induction of cell cycle arrest in human HL60 cells assessed as accumulation at G1 phase at 1 mM after 24 hrs by propidium iodide staining based flow cytometry (reference value: 32%); assay type: functional
HL-60 [5] = experiment: Induction of cell cycle arrest in human HL60 cells assessed as accumulation at S phase at 1 mM after 24 hrs by propidium iodide staining based flow cytometry (reference value: 54%); assay type: functional
HL-60 [6] = experiment: Induction of cell cycle arrest in human HL60 cells assessed as accumulation at G2M phase at 1 mM after 24 hrs by propidium iodide staining based flow cytometry (reference value: 12%); assay type: functional
[7] = Half life in pH 7.4 isotonic sodium phosphate buffer at 37 degC by HPLC-DAD-ESI-MS method; assay type: physicochemical
[8] = Half life in RPMI-1640 medium containing 10% fetal calf serum assessed as compound disappearance by HPLC-DAD-ESI-MS method; assay type: ADME, Bos taurus; conditions: cattle
[9] = target: T1, Ribonucleotide reductase (Homo sapiens) (UniProt P23921+Q7LG56); experiment: Inhibition of ribonucleotide reductase in human HL60 cells assessed as intracellular dNTP pools level at 1.2 mM after 1 hr by HPLC method; assay type: cell-based; conditions: HL-60
[10] = target: T1, Ribonucleotide reductase (Homo sapiens); experiment: Inhibition of human recombinant ribonucleotide reductase at 1.2 mM; assay type: protein-complex assay

In the case of `CCCC(CCC)C(=O)O[C@H]1[C@H](n2cnc3c(N)ncnc32)O[C@H](CO)[C@@]1(C)O`, the AC50 (HL-60 [1]) is reported as “Not Active”, the IC50 [2] is reported as 650 µM and the IC50 (K562) is reported as 500 µM. For the same compound, the IC50 (HuT78) was 912 µM, the IC50 (HT-29) was greater than 1000 µM and the IC50 (MCF7) was greater than 1000 µM. It also gave an IC50 (HeLa) greater than 1000 µM, an IC50 [3] greater than 1000 µM and an Activity (HL-60 [4]) of 51%. The Activity (HL-60 [5]) was 40%, the Activity (HL-60 [6]) was 9% and the half-life [7] was greater than 72 h. For the same compound, the half-life [8] was greater than 72 h, the inhibition [9] was “Active” and the inhibition [10] was “Active”.
